According to US6121279A, “Substituted 6-phenylphenanthridines” (Byk Gulden Lomberg Chemische Fabrik GmbH, priority 1997, dated 2000):

Tested on: PDE 4
Test: Inhibition of PDE 4 activity (method of Bauer and Schwabe, adapted to microtiter plates)
Type: biochemical
Conditions: Table A

SMILES | inhibitory concentration as -log IC50 (mol/l), Inhibition of PDE 4 activity
CCOc1cc2c(cc1OC)C(c1ccc(S(=O)(=O)Nc3ccc(C)cc3)cc1)=N[C@H]1CCCC[C@@H]21 (racemic) [Compound 3, (+/-)-cis-9-Ethoxy-8-methoxy-6-(4-p-tolylsulfamoylphenyl)-1,2,3,4,4a,10b-hexahydrophenanthridine] | 9.24
COc1cc2c(cc1OC)[C@@H]1CCCC[C@@H]1N=C2c1ccc(S(=O)(=O)Nc2ccc(C)cc2)cc1 (single isomer, unassigned) [Compound 5, (-)-cis-8,9-Dimethoxy-6-(4-p-tolylsulfamoylphenyl)-1,2,3,4,4a,10b-hexahydrophenanthridine] | 8.30
CCCN(CCC)S(=O)(=O)c1ccc(C2=N[C@H]3CCCC[C@H]3c3cc(OCC)c(OC)cc32)cc1 (racemic) [Compound 2, (+/-)-cis-9-Ethoxy-8-methoxy-6-(4-dipropylsulfamoylphenyl)-1,2,3,4,4a,10b-hexahydrophenanthridine] | 9.25
CCOc1cc2c(cc1OC)C(c1ccc(S(N)(=O)=O)cc1)=N[C@H]1CCCC[C@@H]21 (racemic) [Compound 1, (+-)-cis-9-Ethoxy-8-methoxy-6-(4-sulfamoylphenyl)-1,2,3,4,4a,10b-hexahydrophenanthridine] | 8.55
CCOc1cc2c(cc1OC)C(c1ccc(C(=O)Nc3cccnc3)cc1)=NC1CCCCC21 (mixture of isomers) [Compound 6, (+/-)-cis-9-Ethoxy-8-methoxy-6-(4-pyrid-3-ylamidophenyl)-1,2,3,4,4a,10b-hexahydrophenanthridine] | 8.66
